Laboratory results from patent US20050266575A1 (priority 2004, published 2005).
pEC50, pKi: −log10 of the molar value. No end group written: not given here.

How the values were obtained:
[1] = biological target: T1, human nociceptin receptor (ORL-1) (Homo sapiens, UniProt P41146); experiment: Nociceptin receptor binding assay: binding of 125I-Tyr14-nociceptin to ORL-1 on HEK-293 cell membranes; conditions: for pKi: competition with 0.5 nM 125I-Tyr14-nociceptin, HEK-293 cell membranes, 3 experiments in duplicate; for Ki(x)/Ki(WT): ratio of variant Ki to nociceptin Ki
T1 construct: expressed in transfected cells
Procedure: Binding of peptides to the ORL-1 Receptor. […] ORL-1 membranes were diluted in binding buffer such that 25 μL containing 1 microgram (μg) of membrane was added to each well of a standard 96-well microtiter in binding buffer. […] Plates were incubated for two hours at room temperature and the reactions were filtered over GF/C Filterplates (Perkin Elmer-NEN), prewetted in 0.03% polyethleneimine, in a Filtermate 196 apparatus (Packard). Plates were washed six times with binding buffer in the filtration apparatus, then dried under vacuum for 1-2 hours. Twenty five microliters (25 μL) Microscint 20 (Packard) per well was added to solubilize bound radioactivity. The plates were then sealed and counted on a Packard Top Count to determine radioactivity bound to the membranes. Curves were fitted and IC50 values determined using Graphpad Prizm software (v3.0).

ORL1 [2] = biological target: T2, ORL1 (Homo sapiens, UniProt P41146); experiment: Calcium flux (FLIPR) in carbachol-sensitized HEK-293 cells expressing ORL-1 receptor; format: cell-based; set-up: expressed in transfected cells; host or cells: HEK-293 cells expressing ORL-1 receptor; conditions: for pEC50: HEK-293 cells expressing ORL-1, pretreated with 100 μM carbachol, read-out: EC50 (calcium release); for EC50(x)/EC50(WT): ratio of variant EC50 to nociceptin EC50
Procedure: HEK-293 cells expressing ORL-1 receptor were plated at a density of 50,000 cells/well in a total volume of 50 ↑L onto 96-well plates. Two days later cells were prepared for assay using the FLIPR Calcium Assay Kit (Molecular Devices) according to manufacturer's directions, with the exception that the volume of dye mix added to each well was 50 μL instead of 100 μL. Cells were then treated with 100 μM carbachol in 100 μL. […] Data points were collected at one per second for 120 seconds, then one every three seconds for 30 seconds for a total collection time of 150 seconds after both the first and second additions.
This produced a “percent of carbachol response” for each dose. The experiment was repeated 6 times and the high and low values for each concentration were dropped. The data were used to generate EC50 curves using GraphPad Prizm v.3.0 software.
Target sequence in this assay (P41146 whole entry): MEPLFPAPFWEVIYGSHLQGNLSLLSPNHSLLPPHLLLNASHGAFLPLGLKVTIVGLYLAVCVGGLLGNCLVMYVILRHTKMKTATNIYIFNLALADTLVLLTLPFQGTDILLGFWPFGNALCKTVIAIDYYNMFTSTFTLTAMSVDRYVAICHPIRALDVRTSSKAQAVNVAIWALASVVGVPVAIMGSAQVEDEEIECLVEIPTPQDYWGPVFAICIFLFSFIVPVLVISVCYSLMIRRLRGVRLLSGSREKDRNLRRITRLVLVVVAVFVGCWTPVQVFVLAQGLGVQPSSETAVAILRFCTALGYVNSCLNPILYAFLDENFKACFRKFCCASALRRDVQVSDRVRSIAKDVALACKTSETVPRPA

ORL1 [3] = biological target: T2, ORL1; conditions: cited from earlier work
Target sequence in this assay (P41146 whole entry, species assumed): as the sequence (P41146 whole entry) above

T1 sequence (P41146 whole entry): as above

Molecule	pKi [1]	Ki(x)/Ki(WT) [1]	pEC50 (ORL1 [2])	EC50(x)/EC50(WT) (ORL1 [2])	fold lower affinity for ORL1 than nociceptin (ORL1 [3])
FGGATGARKSARKLANQ [Peptide F4A]	6.73	262	5.41	1617	
FGGFTGAKKSAKKLANQ [R8K/R12K]	8.41	5.4	7.27	22	
FGGFTGAKKSARKLANQ [Peptide R8K]	7.49	45	7.19	27	
FAGFTGARKSARKLANQ [Peptide G2A]	6.72	265	5.86	581	
FGGFTGARKSARKLAAQ [Peptide N16A]	9.52	0.4	8.77	0.7	
FGGFTGARKSLRKLANQ [Peptide A11L]	9.05	1.2	8.08	3.5	
FGGFTGARKSSRKLANQ [Peptide A11S]	8.92	1.7	8.92	0.5	
FGGFTGSRKSARKLANQ [Peptide A7S]	8.82	2.1	8.25	2.3	
FGGFTGARKSAAKLANQ [Peptide R12A]	8.55	3.9	8.89	0.5	
FGGFTGARKSARKAANQ [Peptide L14A]	9.70	0.3	8.15	2.9	
FGGFTGARKSARKLANA [Peptide Q17A]	9.10	1.1	7.92	4.8	
FGGFTGARKSAKKLANQ [Peptide R12K]	9.10	1.1	8.62	1.0	
CCCC[C@H](NC(=O)[C@H](CO)NC(=O)[C@H](CCCCN)NC(=O)[C@H](CCCNC(=N)N)NC(=O)[C@H](C)NC(=O)CNC(=O)[C@@H](NC(=O)[C@H](Cc1ccccc1)NC(=O)CNC(=O)CNC(=O)[C@@H](N)Cc1ccccc1)[C@@H](C)O)C(=O)N[C@@H](CCCNC(=N)N)C(=O)N[C@@H](CCCCN)C(=O)N[C@@H](CC(C)C)C(=O)N[C@@H](C)C(=O)N[C@@H](CC(N)=O)C(=O)N[C@@H](CCC(N)=O)C(=O)O [Peptide A11nleu]	8.72	2.6	8.38	1.8	
FGGFAGARKSARKLANQ [Peptide T5A]	8.19	8.9	6.80	66	
FGGFTGARASARKLANQ [Peptide K9A]	8.82	2.1	8.55	1.2	
FGGFTGARKAARKLANQ [Peptide S10A]	9.10	1.2	7.38	18	
FGGFSGARKSARKLANQ [Peptide T5S]	8.85	2.0	7.57	11	
FGGFLGARKSARKLANQ [Peptide T5L]	8.66	3.1	7.85	5.7	
FGGFTGARKSARALANQ [Peptide K13A]	8.82	2.1	8.96	0.5	
CCCC[C@H](NC(=O)CNC(=O)[C@@H](NC(=O)[C@H](Cc1ccccc1)NC(=O)CNC(=O)CNC(=O)[C@@H](N)Cc1ccccc1)[C@@H](C)O)C(=O)N[C@@H](CCCNC(=N)N)C(=O)N[C@@H](CCCCN)C(=O)N[C@@H](CO)C(=O)N[C@@H](C)C(=O)N[C@@H](CCCNC(=N)N)C(=O)N[C@@H](CCCCN)C(=O)N[C@@H](CC(C)C)C(=O)N[C@@H](C)C(=O)N[C@@H](CC(N)=O)C(=O)N[C@@H](CCC(N)=O)C(=O)O [Peptide A7nleu]	9.30	0.7	7.54	12	
FGGFTGAAKSARKLANQ [Peptide R8A]	7.30	69	7.16	29	
FGGFTGARKSGRKLANQ [Peptide A11G]	8.49	4.4	7.96	4.8	
FGGFTAARKSARKLANQ [Peptide G6A]	8.82	2.1	7.41	16	
FGGFTGGRKSARKLANQ [Peptide A7G]	8.11	11	7.74	7.4	
Y G G F L R R I R P K L K W D N Q [Dynorphin A]					100 fold
FGGFTGARKSARKLGNQ [Peptide A15G]	9.70	0.3	8.72	0.8	
AGGFTGARKSARKLANQ [Peptide F1A]	7.04	127	5.84	601	
FGAFTGARKSARKLANQ [Peptide G3A]	8.80	2.2	7.89	5.5	
FGGFTGLRKSARKLANQ [Peptide A7L]	9.10	1.1	7.89	5.2	
